Like-named read-outs stand apart in the source and are kept apart here.
What was measured:
[1] = system: Panc-1 pancreatic cancer cell line; test: Antiproliferative assay, Panc-1; format: cell-based; conditions: Homo sapiens; Panc-1 pancreatic cancer cells; read-out: Antiproliferative activity IC50 ± SEM, Panc-1
EGFR [2] = molecular target: T1, EGFR (Homo sapiens, UniProt P00533); test: EGFR inhibitory assay (EGFR-TK assay)
[3] = system: MCF-7 breast cancer cell line; test: Antiproliferative assay, MCF-7; format: cell-based; conditions: Homo sapiens, MCF7; MCF-7 breast cancer cells; read-out: Antiproliferative activity IC50 ± SEM, MCF-7
HER2 = HER2 (Homo sapiens, UniProt P04626); test: HER2 inhibitory assay (ADP-Glo kinase assay)
Sequence of HER2 (P04626 676-1255 limits assumed): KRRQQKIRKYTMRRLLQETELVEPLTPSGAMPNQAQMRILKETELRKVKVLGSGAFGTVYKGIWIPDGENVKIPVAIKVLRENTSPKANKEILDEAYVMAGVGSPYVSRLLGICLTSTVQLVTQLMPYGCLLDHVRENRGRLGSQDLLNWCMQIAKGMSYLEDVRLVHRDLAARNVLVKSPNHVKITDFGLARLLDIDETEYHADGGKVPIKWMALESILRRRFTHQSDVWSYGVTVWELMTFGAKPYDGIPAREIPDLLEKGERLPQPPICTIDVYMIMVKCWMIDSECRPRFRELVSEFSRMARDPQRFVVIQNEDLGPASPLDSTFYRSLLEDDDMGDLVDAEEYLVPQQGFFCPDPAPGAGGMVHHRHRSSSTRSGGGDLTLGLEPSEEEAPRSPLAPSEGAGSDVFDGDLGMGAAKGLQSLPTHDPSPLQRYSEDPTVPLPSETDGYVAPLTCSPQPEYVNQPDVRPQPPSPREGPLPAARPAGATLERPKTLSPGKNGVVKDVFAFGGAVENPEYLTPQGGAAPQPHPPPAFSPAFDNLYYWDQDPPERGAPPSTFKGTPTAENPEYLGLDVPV

[4] = system: HT-29 colon cancer cell line; test: Antiproliferative assay, HT-29; format: cell-based; conditions: Homo sapiens; HT-29 colon cancer cells; read-out: Antiproliferative activity IC50 ± SEM, HT-29
[5] = system: A-549 lung cancer cell line; test: Antiproliferative assay, A-549; format: cell-based; conditions: Homo sapiens, A549; A-549 lung cancer cells; read-out: Antiproliferative activity IC50 ± SEM, A-549
[6] = system: four human cancer cell lines (A-549, MCF-7, Panc-1, HT-29); test: Antiproliferative assay, average over four cancer cell lines; format: cell-based; conditions: Homo sapiens, average IC50 over the four cancer cell lines
[7] = Cell viability assay (MTT) on MCF-10A normal cells; format: cell-based; conditions: human, MCF-10A mammary gland epithelial normal cells, MCF-10A cells, four-day incubation
Experimental: The impact of compounds 3a–h and 5a–d on cell viability was evaluated using the human mammary (MCF-10A) gland epithelium normal cell line. The MTT assay was used to evaluate the cell viability of 3a–h and 5a–d after a four-day incubation period on MCF-10A cells.[46] Refer to Appendix A for more details.
The effect of new compounds 3a–h and 5a–d on cell viability was evaluated using the MCF-10A (human mammary gland epithelium) normal cell line.
4.2. Biological evaluation
4.2.1 Cell Viability assay (MTT assay)
MTT assay was performed to investigate the effect of the synthesized compounds on mammary epithelial cells (MCF-10A). The cells were propagated in medium consisting of Ham's F-12 medium/ Dulbecco's modified Eagle's medium (DMEM) (1:1) supplemented with 10% foetal calf serum, 2 mM glutamine, insulin (10 μg/mL), hydrocortisone (500 ng/mL) and epidermal growth factor (20 ng/mL). Trypsin ethylenediamine tetra acetic acid (EDTA) was used to passage the cells after every 2-3 days. 96-well flat-bottomed cell culture plates were used to seed the cells at a density of 10^4 cells mL-1. The medium was aspirated from all the wells of culture plates after 24 h followed by the addition of synthesized compounds (in 200 μL medium to yield a final concentration of 0.1% (v/v) dimethyl sulfoxide) into individual wells of the plates. Four wells were designated to a single compound. The plates were allowed to incubate at 37°C for 96 h. Afterwards, the medium was aspirated and 3-[4,5-dimethylthiazol-2-yl]-2,5-diphenyltetrazolium bromide (MTT) (0.4 mg/mL) in medium was added to each well and subsequently incubated for 3 h. The medium was aspirated and 150 μL dimethyl sulfoxide (DMSO) was added to each well. The plates were vortexed followed by the measurement of absorbance at 540 nm on a microplate reader. The results were presented as inhibition (%) of proliferation in contrast to controls comprising 0.1% DMSO.

[8] = system: four human cancer cell lines; set-up: method as in ref 39 = [39]; Mohassab A. M. Hassan H. A. Abou-Zied H. A. Fujita M. Otsuka M. Gomaa H. A. Youssif B. G. Abdel-Aziz M. J. Mol. Struct. 2024 1297 136953; conditions: read-out: GI50 against four cancer cell lines; cited from earlier work
EGFR [9] = molecular target: T1, EGFR; set-up: 645–1186; His6 (N); made in house; host or cells: Sf-9 insect cells (baculovirus vectors pBlueBacHis2B / pFASTBacHTc); method as in ref 38 (Makawana et al.); conditions: ref 38 (Makawana et al.); cited from earlier work
BRAF^V600E [10] = system: BRAF^V600E; set-up: method as in PMID 33279248; conditions: cited from earlier work
BRAF^V600E [11] = system: BRAF^V600E; set-up: method as in ref 39 = [39]; Mohassab A. M. Hassan H. A. Abou-Zied H. A. Fujita M. Otsuka M. Gomaa H. A. Youssif B. G. Abdel-Aziz M. J. Mol. Struct. 2024 1297 136953; conditions: cited from earlier work

T1 sequence (P00533 669-1210): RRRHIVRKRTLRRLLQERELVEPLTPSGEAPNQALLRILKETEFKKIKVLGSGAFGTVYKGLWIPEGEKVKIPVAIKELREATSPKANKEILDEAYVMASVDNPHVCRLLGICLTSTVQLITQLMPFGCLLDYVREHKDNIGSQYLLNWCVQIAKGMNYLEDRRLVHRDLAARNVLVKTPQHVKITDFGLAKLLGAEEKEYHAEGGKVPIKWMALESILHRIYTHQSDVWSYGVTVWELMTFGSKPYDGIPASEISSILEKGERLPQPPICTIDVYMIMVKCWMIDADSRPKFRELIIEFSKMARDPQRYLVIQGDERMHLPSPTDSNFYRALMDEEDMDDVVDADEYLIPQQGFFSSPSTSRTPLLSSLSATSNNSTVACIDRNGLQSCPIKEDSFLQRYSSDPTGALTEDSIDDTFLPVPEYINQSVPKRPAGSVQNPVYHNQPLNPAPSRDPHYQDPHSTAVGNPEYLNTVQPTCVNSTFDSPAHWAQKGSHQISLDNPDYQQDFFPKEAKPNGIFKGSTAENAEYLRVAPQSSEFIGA

Cc1ccc2[nH]c(=O)c(C=Nc3ccc(NS(=O)(=O)c4ncccn4)cc3)c(O)c2c1 [Compound 5b, N-(4-(((4-hydroxy-6-methyl-2-oxo-1,2-dihydroquinolin-3-yl)methylene)amino)phenyl)pyrimidine-2-sulfonamide]
IC50 [1]: 0.041 ± 0.004 µM | IC50 (EGFR [2]): 0.085 ± 0.005 µM | IC50 [3]: 0.035 ± 0.004 µM | IC50 (HER2): 0.047 ± 0.003 µM | IC50 [4]: 0.04 ± 0.003 µM | IC50 [5]: 0.039 ± 0.004 µM | GI50 [6]: 0.039 µM | viability at 96 h, 50 µM [7]: 90%

Cn1c(=O)c(C=Nc2ccc(NS(=O)(=O)c3ncccn3)cc2)c(O)c2ccccc21 [Compound 5d, N-(4-(((4-hydroxy-1-methyl-2-oxo-1,2-dihydroquinolin-3-yl)methylene)amino)phenyl)pyrimidine-2-sulfonamide]
IC50 [1]: 0.048 ± 0.004 µM | IC50 (EGFR [2]): 0.093 ± 0.005 µM | IC50 [3]: 0.042 ± 0.004 µM | IC50 (HER2): 0.053 ± 0.003 µM | IC50 [4]: 0.048 ± 0.004 µM | melting point: 318 to 320 °C | IC50 [5]: 0.046 ± 0.004 µM | GI50 [6]: 0.046 µM | viability at 96 h, 50 µM [7]: 90%

CC(=NO)c1ccc(NC(=O)c2cc(-c3ccc(S(C)(=O)=O)cc3)nc3ccccc23)cc1 [Compound VIII]
GI50 [8]: 1.2 µM

COc1ccc(Oc2nc3ccc(C)cc3cc2/C=N/NC(=O)Cn2cc([N+](=O)[O-])nc2C)cc1 [Compound VII]
IC50 (EGFR [9]): 0.12 ± 0.05 µM

C#Cc1cccc(Nc2ncnc3cc(OCCOC)c(OCCOC)cc23)c1 [Erlotinib, reference compound]
IC50 [1]: 0.03 ± 0.003 µM | IC50 [3]: 0.04 ± 0.003 µM | IC50 (BRAF^V600E [10]): […] | IC50 [4]: 0.03 ± 0.003 µM | IC50 (BRAF^V600E [11]): […] | IC50 [5]: 0.03 ± 0.003 µM

COc1cccc2c1C(=O)c1c(O)c3c(c(O)c1C2=O)C[C@@](O)(C(=O)CO)C[C@@H]3O[C@H]1C[C@H](N)[C@H](O)[C@H](C)O1 [doxorubicin]
GI50 [8]: 1.4 µM

Reference: publication PMC11492426, “Design, synthesis, and biological evaluation of novel quinoline-based EGFR/HER-2 dual-target inhibitors as potential anti-tumor agents” (RSC Advances, 2024)
